From the NIST ThermoML archive (doi:10.1016/j.fluid.2014.10.004)

What was measured:
[1] = refractive index (Na D-line) (dimensionless); xn = mol fraction of the nth substance listed; details: 101.3 kPa, Liquid, Standard Abbe refractometry
[2] = xn = mol fraction of the nth substance listed; details: 101.3 kPa, Liquid, Sing-around technique in a fixed-path interferometer

CCCCCl [1-chlorobutane] + C[N+](=O)[O-]
x1 = 1
Details | refractive index, 298.15 K | refractive index, 308.15 K | refractive index, 318.15 K | speed of sound, 298.15 K [m/s] | speed of sound, 308.15 K [m/s] | speed of sound, 318.15 K [m/s]
[1] | 1.39953 | 1.39413 | 1.38851 | – | – | –
[2] | – | – | – | 1119 | 1078 | 1037.3

CCCCCCl [1-chloropentane] + C[N+](=O)[O-]
Details | refractive index, 298.15 K | refractive index, 308.15 K | refractive index, 318.15 K | speed of sound, 298.15 K [m/s] | speed of sound, 308.15 K [m/s] | speed of sound, 318.15 K [m/s]
[1], x1 = 0.1044 | 1.38453 | 1.37934 | 1.37439 | – | – | –
[1], x1 = 0.1721 | 1.38722 | 1.3821 | 1.377 | – | – | –
[1], x1 = 0.2575 | 1.39056 | 1.38539 | 1.38037 | – | – | –
[1], x1 = 0.3466 | 1.39367 | 1.38858 | 1.38354 | – | – | –
[1], x1 = 0.4525 | 1.39687 | 1.39181 | 1.38674 | – | – | –
[1], x1 = 0.5435 | 1.39934 | 1.39422 | 1.38916 | – | – | –
[1], x1 = 0.6864 | 1.40308 | 1.39792 | 1.39268 | – | – | –
[1], x1 = 0.8325 | 1.40646 | 1.4012 | 1.396 | – | – | –
[1], x1 = 0.8859 | 1.4076 | 1.40244 | 1.3972 | – | – | –
[1], x1 = 1 | 1.41015 | 1.40501 | 1.39984 | – | – | –
[2], x1 = 0.1043 | – | – | – | 1276 | 1237 | 1197.9
[2], x1 = 0.1721 | – | – | – | 1253.5 | 1214.4 | 1175.3
[2], x1 = 0.2575 | – | – | – | 1231.2 | 1192.3 | 1153.4
[2], x1 = 0.3466 | – | – | – | 1213.7 | 1174.8 | 1135.8
[2], x1 = 0.4525 | – | – | – | 1198.2 | 1159.2 | 1120.1
[2], x1 = 0.5435 | – | – | – | 1188.6 | 1149.2 | 1110.1
[2], x1 = 0.6864 | – | – | – | 1177.1 | 1137.8 | 1098.5
[2], x1 = 0.8325 | – | – | – | 1169.4 | 1130.1 | 1090.8
[2], x1 = 0.8859 | – | – | – | 1167.6 | 1128.1 | 1088.9
[2], x1 = 1 | – | – | – | 1164.2 | 1124.9 | 1085.8

C[N+](=O)[O-] [nitromethane] + ClCCCCl
x2 = 0
Details | refractive index, 298.15 K | refractive index, 308.15 K | refractive index, 318.15 K | speed of sound, 298.15 K [m/s] | speed of sound, 308.15 K [m/s] | speed of sound, 318.15 K [m/s]
[1] | 1.37948 | 1.3748 | 1.37007 | – | – | –
[2] | – | – | – | 1321.2 | 1281.8 | 1242.5

ClCCCCCl [1,4-dichlorobutane] + C[N+](=O)[O-]
Details | refractive index, 298.15 K | refractive index, 308.15 K | refractive index, 318.15 K | speed of sound, 298.15 K [m/s] | speed of sound, 308.15 K [m/s] | speed of sound, 318.15 K [m/s]
[1], x1 = 0.0825 | 1.38965 | 1.38514 | 1.38078 | – | – | –
[1], x1 = 0.1759 | 1.39985 | 1.39614 | 1.39174 | – | – | –
[1], x1 = 0.2825 | 1.40987 | 1.40646 | 1.40219 | – | – | –
[1], x1 = 0.3815 | 1.41799 | 1.41451 | 1.41005 | – | – | –
[1], x1 = 0.4815 | 1.42515 | 1.42129 | 1.41679 | – | – | –
[1], x1 = 0.5911 | 1.43204 | 1.4279 | 1.42357 | – | – | –
[1], x1 = 0.6898 | 1.43765 | 1.43335 | 1.42901 | – | – | –
[1], x1 = 0.8208 | 1.4443 | 1.43965 | 1.43512 | – | – | –
[1], x1 = 0.9262 | 1.44906 | 1.44436 | 1.43974 | – | – | –
[1], x1 = 1 | 1.45224 | 1.44756 | 1.44279 | – | – | –
[2], x1 = 0.0825 | – | – | – | 1308.1 | 1269.3 | 1230.6
[2], x1 = 0.1759 | – | – | – | 1298.3 | 1260 | 1221.8
[2], x1 = 0.2825 | – | – | – | 1291.3 | 1253.5 | 1215.8
[2], x1 = 0.3815 | – | – | – | 1287.2 | 1249.9 | 1212.7
[2], x1 = 0.4815 | – | – | – | 1285 | 1248 | 1211.2
[2], x1 = 0.5911 | – | – | – | 1284 | 1247.3 | 1210.8
[2], x1 = 0.6898 | – | – | – | 1283.9 | 1247.5 | 1211.3
[2], x1 = 0.8208 | – | – | – | 1284.6 | 1248.6 | 1212.8
[2], x1 = 0.9262 | – | – | – | 1285.7 | 1249.9 | 1214.4
[2], x1 = 1 | – | – | – | 1286.6 | 1251 | 1215.7

C[N+](=O)[O-] [nitromethane] + CCCCCCl
x2 = 0
Details | refractive index, 298.15 K | refractive index, 308.15 K | refractive index, 318.15 K | speed of sound, 298.15 K [m/s] | speed of sound, 308.15 K [m/s] | speed of sound, 318.15 K [m/s]
[1] | 1.37954 | 1.3747 | 1.36996 | – | – | –
[2] | – | – | – | 1321.7 | 1282 | 1242.6

C[N+](=O)[O-] [nitromethane] + ClCCCl
Details | refractive index, 298.15 K | refractive index, 308.15 K | refractive index, 318.15 K | speed of sound, 298.15 K [m/s] | speed of sound, 308.15 K [m/s] | speed of sound, 318.15 K [m/s]
[1], x2 = 0 | 1.37952 | 1.37482 | 1.37009 | – | – | –
[1], x2 = 0.1132 | 1.38846 | 1.38351 | 1.37845 | – | – | –
[1], x2 = 0.2235 | 1.39669 | 1.39148 | 1.38609 | – | – | –
[1], x2 = 0.3249 | 1.40379 | 1.39839 | 1.39284 | – | – | –
[1], x2 = 0.4672 | 1.41318 | 1.40777 | 1.40213 | – | – | –
[1], x2 = 0.5586 | 1.4188 | 1.41343 | 1.40781 | – | – | –
[1], x2 = 0.6264 | 1.42279 | 1.41742 | 1.41184 | – | – | –
[1], x2 = 0.7349 | 1.42888 | 1.42345 | 1.41797 | – | – | –
[1], x2 = 0.857 | 1.43522 | 1.42981 | 1.42424 | – | – | –
[1], x2 = 0.923 | 1.43844 | 1.43304 | 1.42748 | – | – | –
[2], x2 = 0 | – | – | – | 1321.2 | 1281.8 | 1242.5
[2], x2 = 0.0878 | – | – | – | 1298.2 | 1259 | 1220.1
[2], x2 = 0.1939 | – | – | – | 1279 | 1240.3 | 1201.6
[2], x2 = 0.2938 | – | – | – | 1264 | 1225.5 | 1187
[2], x2 = 0.3998 | – | – | – | 1246.1 | 1207.7 | 1169.4
[2], x2 = 0.5028 | – | – | – | 1236 | 1197.7 | 1159.5
[2], x2 = 0.6154 | – | – | – | 1229 | 1190.8 | 1152.5
[2], x2 = 0.7207 | – | – | – | 1218.7 | 1180.5 | 1142.2
[2], x2 = 0.8326 | – | – | – | 1207.6 | 1169.3 | 1131.1
[2], x2 = 0.9404 | – | – | – | 1201.6 | 1163.3 | 1125
